The target of one assay is Tyk2 kinase domain (JH1) (Homo sapiens (Human), UniProt P29597). Put plainly: Tyk2 Radioactive Kinase Assay. In kind it is biochemical. The settings on record: 10 μM compound; ATP 10 μM. How it is done: (§1) The Tyk2 and JAK2 radioactive kinase assay measures the percent inhibition at the Tyk2 kinase domain (JH1) and the percent inhibition at the JAK2 kinase domain (JH1). Results of the assay are expressed as percent inhibition at 10 μM.

Assay [1] concerns IL-12 induced STAT4 phophorylation mediated by Tyk2/JAK2 (heterodimeric complex). Put plainly: IL-12 Induced pSTAT4 in Human PBMC. It is filed as cell-based. The settings on record: 1.7 ng/mL IL-12. An excerpt:
The IL-12 Induced pSTAT4 assay evaluates the inhibition of IL-12 induced STAT4 phophorylation mediated by Tyk2/JAK2 (heterodimeric complex).

Another assay deals with JAK2 kinase domain (JH1) (Homo sapiens (Human), UniProt O60674). Put plainly: JAK2 Radioactive Kinase Assay. In kind it is biochemical. The settings on record: 10 μM compound; ATP 10 μM. How it is done: as §1
Sequence of JAK2 kinase domain (JH1) (O60674 849-1124): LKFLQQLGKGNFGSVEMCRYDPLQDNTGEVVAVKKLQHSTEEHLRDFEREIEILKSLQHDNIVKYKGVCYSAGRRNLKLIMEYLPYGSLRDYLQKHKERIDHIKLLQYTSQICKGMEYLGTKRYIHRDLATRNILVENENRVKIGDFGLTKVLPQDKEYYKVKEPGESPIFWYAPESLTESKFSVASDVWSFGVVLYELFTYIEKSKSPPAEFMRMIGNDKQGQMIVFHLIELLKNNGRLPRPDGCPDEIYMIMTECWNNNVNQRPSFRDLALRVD
In assay [2] the test system is GM-CSF induced STAT5 phosphorylation mediated by the JAK2/JAK2 homdimeric complex. Put plainly: GM-CSF Induced pSTAT5 in Human PBMC. The settings on record: Homo sapiens, PBMC, 20 min, read-out: PBMC_GMCSF_pSTAT5 IC50, human PBMC; GM-CSF 5 ng/mL for 20 minutes; pSTAT5.
Description: Human PBMC are isolated from buffy coat and are stored frozen for assays as needed.
Assay [3] has as its target human TYK2 (JH2 domain-pseudokinase) (Homo sapiens (Human), UniProt P29597). Put plainly: TYK2 JH2 Domain Binding Assay (KINOMEscan). How it is done: Binding constants for compounds of the present invention against the JH2 domain were determined by the following protocol for a KINOMEscan® assay (DiscoveRx). A fusion protein of a partial length construct of human TYK2 (JH2 domain-pseudokinase) (amino acids G556 to D888 based on reference sequence NP_003322.3) and the DNA binding domain of NFkB was expressed in transiently transfected HEK293 cells. From these HEK 293 cells, extracts were prepared in M-PER extraction buffer (Pierce) in the presence of Protease Inhibitor Cocktail Complete (Roche) and Phosphatase Inhibitor Cocktail Set II (Merck) per manufacturers' instructions. The TYK2 (JH2 domain-pseudokinase) fusion protein was labeled with a chimeric double-stranded DNA tag containing the NFkB binding site (5′-[…]-3′) fused to an amplicon for qPCR readout, which was added directly to the expression extract (the final concentration of DNA-tag in the binding reaction is 0.1 nM).
The liganded beads were blocked with excess biotin and washed with blocking buffer (SeaBlock (Pierce), 1% BSA, 0.05% Tween 20, 1 mM DTT) to remove unbound ligand and to reduce nonspecific binding.
Extracts were used directly in binding assays without any enzyme purification steps at a ≥10,000-fold overall stock dilution (final DNA-tagged enzyme concentration<0.1 nM). Extracts were loaded with DNA-tag and diluted into the binding reaction in a two step process. First extracts were diluted 1:100 in 1× binding buffer (PBS/0.05% Tween 20/10 mM DTT/0.1% BSA/2 μg/ml sonicated salmon sperm DNA) containing 10 nM DNA-tag. This dilution was allowed to equilibrate at room temperature for 15 minutes and then subsequently diluted 1:100 in 1× binding buffer. […] Kds were determined using an 11-point 3-fold compound dilution series with three DMSO control points. […] The compounds were then diluted directly into the assays such that the final concentration of DMSO was 0.9%. All reactions performed in polypropylene 384-well plates. Each was a final volume of 0.02 mL. Assays were incubated with shaking for 1 hour at room temperature. Then the beads were pelleted and washed with wash buffer (lx PBS, 0.05% Tween 20) to remove displaced kinase and test compound. […] The qPCR protocol consisted of a 10 minute hot start at 95° C., followed by 35 cycles of 95° C. for 15 seconds, 60° C. for 1 minute.
Kds were determined using an 11-point 3-fold compound dilution series with three DMSO control points. […] The compounds were then diluted directly into the assays such that the final concentration of DMSO was 0.9%. The Kds were determined using a compound top concentration of 30,000 nM. Kd measurements were performed in duplicate.
Binding constants (Kds) were calculated with a standard dose-response curve using the Hill equation: […]
The Hill Slope was set to −1.

pIC50, pKd: −log10 of the molar value.

The text below walks through data of US10577373B2, “TYK2 inhibitors and uses thereof” (Nimbus Lakshmi, Inc., priority 2017, dated 2020).

In general, inhibition refers to the drop in the measured response relative to a control, in per cent. Broadly, the pIC50 is −log10 of the IC50, conventionally taken in molar units. As a reminder, the pKd is the Kd on a negative log10 scale, so that one unit is a factor of ten. Higher therefore signals a small Kd.

Sequence of Tyk2 kinase domain (JH1) (P29597 897-1176): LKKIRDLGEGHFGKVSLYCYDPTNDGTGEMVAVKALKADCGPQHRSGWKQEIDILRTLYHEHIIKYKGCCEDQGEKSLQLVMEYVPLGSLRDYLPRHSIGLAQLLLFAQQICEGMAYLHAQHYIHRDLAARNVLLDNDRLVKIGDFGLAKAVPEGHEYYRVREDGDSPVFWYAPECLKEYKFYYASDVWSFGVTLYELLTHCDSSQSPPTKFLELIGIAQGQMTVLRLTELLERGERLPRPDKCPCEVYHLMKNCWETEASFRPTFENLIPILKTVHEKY
Sequence of human TYK2 (JH2 domain-pseudokinase) (P29597 556-888): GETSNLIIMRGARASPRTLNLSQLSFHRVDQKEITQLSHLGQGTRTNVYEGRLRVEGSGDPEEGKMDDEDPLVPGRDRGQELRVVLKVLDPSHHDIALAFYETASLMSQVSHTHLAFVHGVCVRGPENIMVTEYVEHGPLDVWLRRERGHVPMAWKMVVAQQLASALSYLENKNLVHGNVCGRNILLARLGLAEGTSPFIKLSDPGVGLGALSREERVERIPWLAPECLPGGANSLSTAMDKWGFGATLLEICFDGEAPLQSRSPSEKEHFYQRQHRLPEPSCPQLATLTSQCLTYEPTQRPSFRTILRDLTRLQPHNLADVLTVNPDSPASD

Turning to `CNc1cc(Nc2cccn([C@H]3CCCC[C@H]3O)c2=O)nc2c(C(=O)N[C@@H]3C[C@@H]3F)cnn12` [I-988, N-((1R,2S)-2-fluorocyclopropyl)-5-((1-((1S,2R)-2-hydroxycyclohexyl)-2-oxo-1,2-dihydropyridin-3-yl)amino)-7-(methylamino)pyrazolo[1,5-a]pyrimidine-3-carboxamide], the inhibition at 10 µM at Tyk2 kinase domain (JH1) and at JAK2 kinase domain (JH1) was below 50% each time. For the same compound, the pIC50 in assay [1] was above 7.00; in assay [2] it was below 4.30. This compound gave a pKd in assay [3] above 9.70.
